# US20240383904A1, “HETEROCYCLIC COMPOUNDS” (Hoffmann-La Roche Inc., priority 2021, published 2024)
# Biological target: T1, MAGL (Homo sapiens, UniProt Q99685)
# T1 sequence (Q99685 1-303): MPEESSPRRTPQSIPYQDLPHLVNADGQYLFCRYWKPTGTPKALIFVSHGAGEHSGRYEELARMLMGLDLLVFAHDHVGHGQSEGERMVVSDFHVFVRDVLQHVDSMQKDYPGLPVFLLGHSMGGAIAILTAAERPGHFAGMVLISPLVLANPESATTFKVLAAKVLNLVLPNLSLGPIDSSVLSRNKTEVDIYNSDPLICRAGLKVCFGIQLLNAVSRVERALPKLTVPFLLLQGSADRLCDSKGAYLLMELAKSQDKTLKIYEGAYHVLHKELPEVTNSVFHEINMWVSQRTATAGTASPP
# Assay: 2-AG assay: MAGL inhibitory activity by hydrolysis of 2-arachidonoylglycerol to arachidonic acid, followed by mass spectrometry
# Assay type: biochemical
# Details: 15 min preincubation, 30 min reaction at RT, 8 μM 2-arachidonoylglycerol
row,SMILES,IC50
1,"O=C1NC2(CO1)CN(C(=O)N1CC3(CC(Oc4ccc(C(F)(F)F)nn4)C3)C1)C2 [Example 76, 2-[6-[6-(trifluoromethyl)pyrida-zin-3-yl]oxy-2-azaspiro[3.3]heptane-2-carbonyl]-7-oxa-2,5-diazaspiro[3.4]octan-6-one]",8.33 nM
2,"O=C1NC2(CO1)CN(C(=O)N1CC3(CCC(Oc4ncc(C(F)(F)F)cn4)CC3)C1)C2 [Example 123, 2-[7-[5-(trifluoromethyl)pyrimi-din-2-yl]oxy-2-azaspiro[3.5]nonane-2-carbonyl]-7-oxa-2,5-diazaspiro[3.4]octan-6-one]",4.43 nM
3,"O=C1CCC2(CN(C(=O)N3CC4(CC(Cc5cnn(C(F)(F)F)c5)C4)C3)C2)N1 [Example 216, 2-[6-[[1-(trifluoromethyl)pyrazol-4-yl]methyl]-2-azaspiro[3.3]heptane-2-carbonyl]-2,5-diazaspiro[3.4]octan-6-one]",17.6 nM
4,"O=C1NCC2(CN(C(=O)N3CC4(CCC(Cc5ccc(OC(F)F)nc5)CC4)C3)C2)N1 [Example 128, 2-[7-[[6-(difluoromethoxy)-3-pyridyl]methyl]-2-azaspiro[3.5]nonane-2-carbonyl]-2,5,7-triazaspiro[3.4]octan-6-one]",51.9 nM
5,"N=[S@](=O)(c1cccc(CC2CC3(C2)CN(C(=O)N2CC4(COCC(=O)N4)C2)C3)c1)C(F)(F)F [Example 294, 2-[6-[[3-(trifluoromethylsulfoni-midoyl)phenyl]methyl]-2-azaspiro[3.3]heptane-2-carbonyl]-8-oxa-2,5-diazaspiro[3.5]nonan-6-one]",2.15 nM
6,"O=C1CCC2(CN(C(=O)N3CC4(CN(Cc5ccc[nH]c5=O)C4)C3)C2)N1 [Example 375, 2-[6-[(2-keto-1H-pyridin-3-yl)methyl]-2,6-diazaspiro[3.3]heptane-2-carbonyl]-2,5-diazaspiro[3.4]octna-6-one]",1850 nM
7,"O=C1NC2(CO1)CN(C(=O)N1CC3(CCN(Cc4ccc(C(F)(F)F)nc4)C3)C1)C2 [Example 156, 2-[7-[[6-(trifluoromethyl)-3-pyridyl]methyl]-2,7-diazaspiro[3.4]octane-2-carbonyl]-7-oxa-2,5-diazaspiro[3.4]octan-6-one]",5.07 nM
8,"O=C1NC2(CO1)CN(C(=O)N1CC3(CC(Cc4ccc(OC(F)(F)F)cn4)C3)C1)C2 [Example 26, 2-[6-[[5-(trifluoromethoxy)-2-pyridyl]methyl]-2-azaspiro[3.3]heptane-2-carbonyl]-7-oxa-2,5-diazaspiro[3.4]octan-6-one]",0.11 nM
9,"O=C1CCC2(CN(C(=O)N3CC4(CC[C@H](Cc5cccc(S(=O)(=O)C(F)(F)F)c5)C4)C3)C2)N1 [Example 223, 2-[(6R)-6-[[3-(trifluoromethylsulfonyl)phenyl]methyl]-2-azaspiro[3.4]octane-2-carbonyl]-2,5-diazaspiro[3.4]octan-6-one]",0.96 nM
10,O=C1NC2(CO1)CN(C(=O)N1CC3(CC(NCc4ccc(C(F)(F)F)cc4F)C3)C1)C2 [Example 94],1.08 nM
11,N#Cc1ccc(CC2CC3(C2)CN(C(=O)N2CC4(CCCC(=O)N4)C2)C3)cc1C(F)(F)F [Example 270],72.4 nM
12,"O=C1CCC2(CN(C(=O)N3CC4(CC(Cc5ccc6ncnn6c5)C4)C3)C2)N1 [Example 320, 2-[6-([1,2,4]triazolo[1,5-a]pyridin-6-ylmethyl)-2-azaspiro[3.3]heptane-2-carbonyl]-2,5-diazaspiro[3.4]octan-6-one]",171 nM
13,"CS(=O)(=O)c1cc(F)cc(CC2CC3(C2)CN(C(=O)N2CC4(COC(=O)N4)C2)C3)c1 [Example 30, 2-[6-(3-fluoro-5-mesyl-benzyl)-2-azaspiro[3.3]heptane-2-carbonyl]-7-oxa-2,5-diazaspiro[3.4]octan-6-one]",0.45 nM
14,"CS(=O)(=O)c1cc(F)ccc1OC1CCC2(CC1)CN(C(=O)N1CC3(COC(=O)N3)C1)C2 [Example 99, 2-[7-(4-fluoro-2-mesyl-phenoxy)-2-azaspiro[3.5]nonane-2-carbonyl]-7-oxa-2,5-diazaspiro[3.4]octan-6-one]",3.09 nM
15,"O=C1COCC2(CN(C(=O)N3CC4(CC(Cc5cncc(S(=O)(=O)C(F)(F)F)c5)C4)C3)C2)N1 [Example 253, 2-[6-[[5-(trifluoromethylsulfonyl)-3-pyridyl]methyl]-2-azaspiro[3.3]heptane-2-carbonyl]-8-oxa-2,5-diazaspiro[3.5]nonan-6-one]",33.5 nM
16,"O=C1NC2(CO1)CN(C(=O)N1CC3(C1)CN(c1cnc(C(F)(F)F)cn1)C3)C2 [Example 206, 2-[6-[5-(trifluoromethyl)pyrazin-2-yl]-2,6-diazaspiro[3.3]heptane-2-carbonyl]-7-oxa-2,5-diazaspiro[3.4]octan-6-one]",278 nM
17,"N=[S@@](=O)(c1ccc(CC2CC3(C2)CN(C(=O)N2CC4(CCC(=O)N4)C2)C3)cc1)C(F)(F)F [Example 286, 2-[6-[[4-(trifluoromethylsulfoni-midoyl)phenyl]methyl]-2-azaspiro[3.3]heptane-2-carbonyl]-2,5-diazaspiro[3.4]octan-6-one]",2.89 nM
18,"O=C1COCC2(CN(C(=O)N3CC4(CC(CNC5(C(F)(F)F)CC5)C4)C3)C2)N1 [Example 89, 2-[6-[[[1-(trifluoromethyl)cyclopro-pyl]amino]methyl]-2-azaspiro[3.3]heptane-2-carbonyl]-8-oxa-2,5-diazaspiro[3.5]nonan-6-one]",29.7 nM
19,"O=C1NCC2(CN(C(=O)N3CC4(CC(Cc5ccc(C(F)(F)F)cc5F)C4)C3)C2)N1 [Example 25, 2-[6-[2-fluoro-4-(trifluoromethyl)benzyl]-2-azaspiro[3.3]heptane-2-carbonyl]-2,5,7-triazaspiro[3.4]octan-6-one]",0.05 nM
20,"N#Cc1cc(C(F)(F)F)ncc1CC1CCC2(C1)CN(C(=O)N1CC3(COC(=O)N3)C1)C2 (stereo not shown) [Example 210, 5-[[2-(6-oxo-7-oxa-2,5-diazaspiro[3.4]octane-2-carbonyl)-2-azaspiro[3.4]octan-6-yl]methyl]-2-(trifluoromethyl)pyridine-4-carbonitrile]",0.84 nM
21,"O=C1NCC2(CN(C(=O)N3CC4(CC(Cc5ccc(F)cc5F)C4)C3)C2)N1 [Example 38, 2-[6-(2,4-difluorobenzyl)-2-azaspiro[3.3]heptane-2-carbonyl]-2,5,7-triazaspiro[3.4]octan-6-one]",2.34 nM
22,"Cc1sc(CN2CC3(C2)CN(C(=O)N2CC4(CCC(=O)N4)C2)C3)nc1C(F)(F)F [Example 341, 2-[6-[[5-methyl-4-(trifluoromethyl)thiazol-2-yl]methyl]-2,6-diazaspiro[3.3]heptane-2-carbonyl]-2,5-diazaspiro[3.4]octan-6-one]",730 nM
23,"O=C1COCC2(CN(C(=O)N3CC4(CC(Cc5ncc(F)cc5F)C4)C3)C2)N1 [Example 371, 2-[6-[(3,5-difluoro-2-pyridyl)methyl]-2-azaspiro[3.3]heptane-2-carbonyl]-8-oxa-2,5-diazaspiro[3.5]nonan-6-one]",9.04 nM
24,"O=C1NC2(CCO1)CN(C(=O)N1CC3(CC(NS(=O)(=O)c4cccc(C(F)(F)F)c4)C3)C1)C2 [Example 52, N-[2-(6-keto-7-oxa-2,5-diazaspiro[3.5]nonane-2-carbonyl)-2-azaspiro[3.3]heptan-6-yl]-3-(trifluoromethyl)benzene-sulfonamide]",742 nM
25,"O=C1NC2(CO1)CN(C(=O)N1CC3(CC[C@H](Oc4cnc(C(F)(F)F)cn4)C3)C1)C2 (single isomer, unassigned) [Example 100]",3.42 nM
